Results: patent US20260265262A1, “CDK2 INHIBITORS AND METHODS OF USING THE SAME” (Cedilla Therapeutics, Inc., priority 2022, published 2026)

Legend:
CDK2/Cyclin E1 [1] = biological target: T1, CDK2/Cyclin E1 (Homo sapiens, UniProt P24941); experiment: CDK2/Cyclin E1 Caliper LabChip EZ Reader mobility shift assay; type: biochemical; details: 2.5 nM CDK2/Cyclin E1, 100 μM ATP, 1.5 μM fluorescent peptide, 30 min pre-incubation; read-out: Caliper Assay (CDK2/CCNE1): IC50
Experimental: Inhibition of CDK2/Cyclin E1 activity in the presence of compounds of the present disclosure was evaluated using a CaliperLabChip® EZ Reader mobility shift assay. In the assay, CDK2/Cyclin E1 (Eurofins, 14-475) catalyzed the phosphorylation of a fluorescently tagged peptide 5-FAM-QSPKKG-CONH2 (PerkinEliner, FL Peptide 18) which induced a difference in capillary electrophoresis mobility. The peptide substrate and product were measured, and the conversion ratio was used to determine the inhibition (as % activity and IC50 values) of CDK2/Cyclin E1. Reactions contained 50 mM HEPES pH 7.5, 10 mM MgCl2, 1 mM EDTA, 2 mM DTT, 0.01% Brij35, 0.5 mg/mL BSA, 0.1% DMSO, 2.5 nM CDK2/Cyclin E1, 100 μM ATP, and 1.5 μM fluorescent peptide substrate.
Dose titrations of inhibitors in 100% DMSO were combined with 3.25 nM CDK2/Cyclin E1 and 130 μM of ATP in reaction buffer. The mixtures were incubated for 30 minutes before the addition of fluorescent peptide substrate to initiate the kinase reaction. The final conditions were 2.5 nM CDK2/Cyclin E1, 100 μM ATP, and 1.5 μM fluorescent peptide. The reactions were stopped after 100 minutes with the addition of EDTA (400 mM final EDTA concentration). The stopped reactions were analyzed on a Caliper LabChip® EZ Reader II. The conversion ratios were normalized to yield % activity, plotted against compound concentration, and fit to a four-parameter equation to determine the IC50 for each compound.

Kuramochi cells = experiment: IncuCyte cell proliferation assay; type: cell-based; details: Kuramochi cells labeled with mApple-H2B, cell count 0 to 72 hours, 20 μM top concentration; read-out: IncuCyte Kuramochi RB-WT: IC50
How it was run: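 Kuramochi cells expressing mApple-H2B were treated with a 10-point, ½-log dilution series (top 20 μM). Fluorescent nuclei were counted by IncuCyte imaging at 0 and 72 h. The fold change in cell count was normalized to DMSO wells and fitted to dose-response curves to give […].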

CDK2/Cyclin E1 [2] = biological target: T1, CDK2/Cyclin E1; experiment: ADP-Glo Luminescent Kinase Assay (CDK2/E1-37C); type: biochemical; details: 0.18 nM CDK2/Cyclin E1, 100 μM ATP, 1.5 μM Histone H1, 37° C., 60 min pre-incubation; read-out: ADPGLO (CDK2/E1-37C): IC50
How it was run: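 Human CDK2/Cyclin E1 preincubated with inhibitor 60 min at 37 °C, then reacted 90 min at 37 °C with final 0.18 nM enzyme, 100 μM ATP, 1.5 μM Histone H1 in HEPES pH 7.5 buffer. ADP formed read by ADP-Glo luminescence; IC50 from four-parameter fit.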

| Structure (SMILES) | IC50 (CDK2/Cyclin E1 [1]) [nM] | IC50 (CDK2/Cyclin E1 [2]) [nM] | IC50 (Kuramochi cells) [µM] |
| --- | --- | --- | --- |
| C[C@@H](OCC1(CO)CC=CCC1)C(NC(=O)[C@@H]1CN(C(=O)c2cnco2)CC12CN(C(=O)C(C)(C)C1CC1)C2)C(C)(C)O (single isomer, unassigned) [Example I-57] | 100 to 1000 | – | > 20 |
| Cc1nc(C)c(C(=O)N2C[C@@H](C(=O)N[C@H](C(=O)N3CCC(OC(F)(F)F)CC3)[C@@H](C)OCC3(CO)CC=CCC3)C3(C2)CN(C(=O)[C@H]2CC2(C)C)C3)s1 (stereo in doubt) [Example I-51] | 10 to 100 | – | 0.5 to 5 |
| COC1CCN(C(=O)[C@@H](NC(=O)[C@@H]2CN(C(=O)c3cncs3)CC23CN(C(=O)[C@H]2CC2(C)C)C3)[C@@H](C)OCC2(CO)CC=CCC2)CC1 (stereo in doubt) [Example I-54] | < 10 | – | 0.5 to 5 |
| COC1CCN(C(=O)[C@@H](NC(=O)[C@@H]2CN(C(=O)c3sc(C)nc3C)CC23CN(C(=O)[C@H]2CC2(C)C)C3)[C@@H](C)OCC2(CO)CC=CCC2)CC1 (stereo in doubt) [Example I-55] | 10 to 100 | – | > 20 |
| COC(=O)[C@@H]1CCCCN1C(=O)[C@@H](NC(=O)[C@@H]1CN(C(=O)c2cnn(Cc3ccccc3)c2)CC12CN(C(=O)[C@H]1CC1(C)C)C2)[C@@H](C)OCC1CCCCC1 [Example I-38] | < 10 | < 500 | < 0.5 |
| COC(=O)C1(CNC(=O)[C@@H](NC(=O)[C@@H]2CN(C(=O)c3cnn(Cc4ccccc4)c3)CC23CN(C(=O)[C@H]2CC2(C)C)C3)[C@@H](C)OCC2CCCCC2)CC1 [Example I-39] | < 10 | < 500 | < 0.5 |
| Cc1nc(C)c(C(=O)N2C[C@@H](C(=O)NC(C(=O)N3CCC(C(F)(F)F)CC3)[C@@H](C)OCC3(CO)CC=CCC3)C3(C2)CN(C(=O)[C@H]2CC2(C)C)C3)s1 (stereo partly drawn) [Example I-50, (8S)-2-((S)-2,2-dimethylcyclopropane-1-carbonyl)-6-(2,4-dimethylthiazole-5-carbonyl)-N-((2S,3R)-3-((1-(hydroxymethyl)cyclohex-3-en-1-yl)methoxy)-1-oxo-1-(4-(trifluoromethyl)piperidin-1-yl)butan-2-yl)-2,6-diazaspiro[3.4]octane-8-carboxamide] | < 10 | – | 0.5 to 5 |
| C[C@@H](OCC1(CO)CC=CCC1)[C@H](NC(=O)[C@@H]1CN(C(=O)c2cncs2)CC12CN(C(=O)[C@H]1CC1(C)C)C2)C(=O)N1CCC(C)(C)CC1 (stereo partly shown) [Example I-53] | < 10 | – | < 0.5 |
| Cc1nc(C)c(C(=O)N2C[C@@H](C(=O)NC([C@@H](C)OCC3(CO)CC=CCC3)C(C)(C)O)C3(C2)CN(C(=O)C(C)(C)C2CC2)C3)s1 (stereo partly drawn) [Example I-56, (8S)-2-(2-cyclopropyl-2-methylpropanoyl)-6-(2,4-dimethylthiazole-5-carbonyl)-N-((4R)-2-hydroxy-4-((1-(hydroxymethyl)cyclohex-3-en-1-yl)methoxy)-2-methylpentan-3-yl)-2,6-diazaspiro[3.4]octane-8-carboxamide] | 1000 to 10000 | – | > 20 |
| CNC(=O)C(NC(=O)[C@@H]1CN(C(=O)c2cncs2)CC12CN(CC1CCCO1)C2)[C@@H](C)OCC12CCC(CC1)OC2 (stereo partly drawn) [Example I-59, (8S)—N-((3R)-3-((2-oxabicyclo[2.2.2]octan-4-yl)methoxy)-1-(methylamino)-1-oxobutan-2-yl)-2-((tetrahydrofuran-2-yl)methyl)-6-(thiazole-5-carbonyl)-2,6-diazaspiro[3.4]octane-8-carboxamide] | 100 to 1000 | – | 5 to 20 |
| COC(=O)CCNC(=O)[C@@H](NC(=O)[C@@H]1CN(C(=O)c2cnn(Cc3ccc(F)cc3)c2)CC12CN(C(=O)C1(C(F)(F)F)CC1)C2)[C@@H](C)OCC12CCC(CC1)OC2 [Example I-111, Methyl 3-((2S,3R)-3-((2-oxabicyclo[2.2.2]octan-4-yl)methoxy)-2-((S)-6-(1-(4-fluorobenzyl)-1H-pyrazole-4-carbonyl)-2-(1-(trifluoromethyl)cyclopropane-1-carbonyl)-2,6-diazaspiro[3.4]octane-8-carboxamido)butanamido)propanoate] | – | < 500 | > 20 |
| C[C@@H](OCC12CCC(CC1)OC2)[C@H](NC(=O)[C@@H]1CN(C(=O)c2cnn(Cc3ccccc3C(=O)O)c2)CC12CN(C(=O)C1(C(F)(F)F)CC1)C2)C(=O)N1CCNC2(CC2)C1 [Example I-112, 2-((4-((S)-8-(((2S,3R)-3-((2-oxabicyclo[2.2.2]octan-4-yl)methoxy)-1-oxo-1-(4,7-diazaspiro[2.5]octan-7-yl)butan-2-yl)carbamoyl)-2-(1-(trifluoromethyl)cyclopropane-1-carbonyl)-2,6-diazaspiro[3.4]octane-6-carbonyl)-1H-pyrazol-1-yl)methyl)benzoic acid] | – | < 500 | > 20 |

Second part, led by results:

| IC50 (CDK2/Cyclin E1 [1]) [nM] | IC50 (CDK2/Cyclin E1 [2]) [nM] | Structure (SMILES) | IC50 (Kuramochi cells) [µM] |
| --- | --- | --- | --- |
| – | 500 to 5000 | C[C@@H](OCC12CCC(CC1)OC2)[C@@H](COC1CCOCC1)NC(=O)[C@@H]1CN(C(=O)c2cncs2)CC12CN(C(=O)C1(C(F)(F)F)CC1)C2 [Example I-113, (8S)—N-[(2R,3R)-3-{2-oxabicyclo[2.2.2]octan-4-ylmethoxy}-1-(oxan-4-yloxy)butan-2-yl]-6-(1,3-thiazole-5-carbonyl)-2-[1-(trifluoromethyl)cyclopropanecarbonyl]-2,6-diazaspiro[3.4]octane-8-carboxamide] | > 20 |
| – | < 500 | COC(=O)[C@@H]1CN(C(=O)[C@@H](NC(=O)[C@@H]2CN(C(=O)c3cnn(Cc4ccc(C#N)cc4)c3)CC23CN(C(=O)C2(C(F)(F)F)CC2)C3)[C@@H](C)OCC23CCC(CC2)OC3)CCN1C(=O)OC(C)(C)C [Example I-114] | 5 to 20 |
| – | < 500 | CCCN1CCC2(CC1)CCN(C(=O)C(NC(=O)C1CN(C(=O)c3cnn(Cc4ccccc4C(=O)O)c3)CC13CN(C(=O)C1(C(F)(F)F)CC1)C3)C(C)OCC13CCC(CC1)OC3)CC2 (stereo not shown) [Example I-115] | > 20 |
| 100 to 1000 | – | COC[C@H]1CCCN(C(=O)[C@@H](NC(=O)[C@H]2CN(C(=O)c3cncs3)CC23CN(C(=O)[C@H]2CC2(C)C)C3)[C@@H](C)OCC2CCCCC2)C1 [Example I-116, (R)—N-((2S,3R)-3-(cyclohexylmethoxy)-1-((S)-3-(methoxymethyl)piperidin-1-yl)-1-oxobutan-2-yl)-2-((S)-2,2-dimethylcyclopropanecarbonyl)-6-(thiazole-5-carbonyl)-2,6-diazaspiro[3.4]octane-8-carboxamide] | 5 to 20 |
| – | < 500 | C[C@@H](OCC1CCOCC1)[C@H](NC(=O)[C@@H]1CN(C(=O)c2cnn(Cc3ccc(C(F)(F)F)cc3)c2)CC12CN(C(=O)C1(C(F)(F)F)CC1)C2)C(=O)N1CCC(c2ccc(C(=O)O)cc2)CC1 [I-64 1st, 4-(1-(O-((tetrahydro-2H-pyran-4-yl)methyl)-N—((S)-6-(1-(4-(trifluoromethyl)benzyl)-1H-pyrazole-4-carbonyl)-2-(1-(trifluoromethyl)cyclopropane-1-carbonyl)-2,6-diazaspiro[3.4]octane-8-carbonyl)-L-threonyl)piperidin-4-yl)benzoic acid] | > 20 |
| – | > 10000 | C[C@@H](OCC12CCC(CC1)OC2)[C@H](NC(=O)[C@@H]1CN(C(=O)c2cnc(O)cn2)CC12CN(C(=O)C1(C(F)(F)F)CC1)C2)C(=O)N1CCC(c2ccc(C(=O)O)c(C(F)(F)F)c2)CC1 [I-89 1st, 4-(1-(O-((2-oxabicyclo[2.2.2]octan-4-yl)methyl)-N—((S)-6-(5-hydroxypyrazine-2-carbonyl)-2-(1-(trifluoromethyl)cyclopropane-1-carbonyl)-2,6-diazaspiro[3.4]octane-8-carbonyl)-L-threonyl)piperidin-4-yl)-2-(trifluoromethyl)benzoic acid] | > 20 |
| – | < 500 | C[C@@H](OCC12CCC(CC1)OC2)[C@H](NC(=O)[C@@H]1CN(C(=O)c2cnc(O)cn2)CC12CN(C(=O)C1(C(F)(F)F)CC1)C2)C(=O)N1CCC(c2ccc(C(=O)O)c(C(F)(F)F)c2)CC1 [I-89 3rd, 4-(1-(O-((2-oxabicyclo[2.2.2]octan-4-yl)methyl)-N-(6-(5-hydroxypyrazine-2-carbonyl)-2-(1-(trifluoromethyl)cyclopropane-1-carbonyl)-2,6-diazaspiro[3.4]octane-8-carbonyl)-L-threonyl)piperidin-4-yl)-2-(trifluoromethyl)benzoic acid] | > 20 |
